Measurements as given in patent US20240245680A1, “Methods of Treating Retinal Vasculopathies” (Unity Biotechnology, Inc., priority 2021, published 2024).
Entries after “also recorded” stand apart in the source; their conditions may differ.

Legend:
[1] = test system: Slc7a11 and Serpinf1 gene expression in retina; assay: Retinal Slc7a11 and Serpinf1 gene expression after IP dosing, normoxic and OIR neonatal mice; assay type: in vivo, mouse; settings: IP 10, 30 or 90 mpk at P12, 4 or 24 hours
Protocol: (§1) To investigate the pharmacodynamic effect of Compound 39, it was intraperitoneally administrated at either 10, 30, or 90 mpk in both normoxic and OIR neonatal mice. The dosing formulation was based on a vehicle comprising 1% Pluronic F-68/1% HPMC, 15% captisol. Both normoxic and OIR neonates were treated at P12 (the end of hyperoxia) and taken down after 4 hours, or 24 hours later at P13. Retinas were dissected, and RNA was extracted using a fully automated, spin-column-based nucleic acid extraction instrument (Qiacube Connect™). qPCR was performed using standard TaqMan reagents and conditions. Slc7a11, Serpinf1, and Tbp (control) gene expression was determined using primers Mm00442530_m1, Mm00441270_m1, and Mm01277042_m1, respectively.

[2] = test system: p-eIF2a, ATF4, DDIT3 (CHOP); assay: Immunoblot of p-eIF2a, ATF4 and DDIT3 in mouse embryonic fibroblasts; assay type: cell-based; settings: MEF cells, 250 nM, five hours, immunoblot (FIG. 10B)
Protocol: Next, mouse embryonic fibroblasts (MEF) cells were cultured to near confluency and treated for five hours with a fixed concentration (250 nM) of Compound 39. Cells were harvested in LSD lysis buffer and homogenates were separated by SDS-PAGE. Immunoblotting was performed overnight using antibodies targeting p-eIF2a (Clone D9G8), ATF4 (Clone D4B8), and DNA damage inducible transcript 3 (DDIT3) (Clone 9C8). Compound 39 treatment increases the levels of phospho-eIF2a (p-eIF2a) as well as ATF4 and DDIT3 (CHOP).

[3] = test system: cellular ATF4 protein; assay: ATF4-HiBiT reporter assay in H2122 cells (GCN2 pathway activation); assay type: cell-based; settings: five hours, quarter-log dilutions from 10 μM (FIG. 10A)
Protocol: Without any limitations, such assays may be used to test other compounds for GCN2 pathway activation. Activating transcription factor 4 (ATF4) was C-terminally tagged in H2122 cells (CRL-5985™) with a high affinity luciferase complementation fragment (HiBiT) through a knock-in approach using CRISPR-Cas12a technology and a single-stranded oligo DNA nucleotides (ssODNs) template carrying the HiBiT tag. Following reporter cell-line generation (H2122 ATF4-HiBIT) cells were seeded in a 96-well plate at near confluency and treated the next day with Compound 39 for five hours. A dose response was generated using quarter-log dilutions using 10 μM as the starting concentration. The Nano-Glo® HiBiT Lytic Detection (Promega®) reagent was added after five hours and allowed for plate-based bioluminescent quantification of cellular ATF4 protein using an add-mix-read assay format. Peak activation of ATF4 expression was detected at ˜250 nM of Compound 39.

[4] = test system: OIR mouse model; assay: Oxygen-induced retinopathy (OIR) mouse model, retinal flatmounts at P17; assay type: in vivo; settings: OIR pups, two 90 mpk intraperitoneal doses (P12 and P14), read at P17 (FIG. 14A, 15B)
Text: The OIR model is based on the exposure of mouse pups to hyperoxia during a phase when their retinal vasculature is still developing. This leads to capillary depletion, and upon return to room air, results in retinal ischemia and proliferative vascular disease in the retinal vasculature or oxygen-induced retinopathy.
C57BL/6J pups at postnatal day 7 (P7) are housed in a hyperoxic chamber (75% O2) for 5 days (n=10 per cage) leading to vessel regression in the center of the retina. CD-1 fostering mothers are rotated before and 2-3 days after entering the chamber. […]
Retinas are dissected and incubated overnight with rhodamine-labeled lectin from Bandeiraea simplicifolia (Griffonia simplicifolia) (1:100) in 1 mM CaCl2) in PBS to visualize vaso-obliterated (VO) or neovascular (NV) areas. […] Images can be analyzed on Visiopharm® to determine % VO or % NV of total retina. […]
Avascular areas and areas of neovascularization were quantified after harvest and staining of retinal flatmounts at P17 in the model.
OIR pups were treated with intraperitoneal injection of 90 mpk Compound 39 at P12, then these pups were removed to room air with their nursing mothers, repeat dosed at P14, and were sacrificed at P17. […] To determine avascular or neovascular areas, retinas were flatmounted, and stained with isolectin B4 (IB4) for fluorescence microscopy. […]

[5] = test system: ATF4 and DDIT3 gene expression in retina; assay: Retinal Atf4 and Ddit3 gene expression after IP dosing, normoxic and OIR neonatal mice; assay type: in vivo, mouse; settings: IP 10, 30 or 90 mpk at P12, 4 or 24 hours
Protocol: as §1, with “Compound 39 was tested in an animal model that shares many hallmarks with human ischemic retinopathies, the oxygen-induced retinopathy (OIR) neonatal mouse. To” for “To”, “(IP) administered” for “administrated”, “mpk.” for “mpk in both normoxic and OIR neonatal mice.”, “TaqMan®” for “TaqMan”, “Atf4, Ddit3,” for “Slc7a11, Serpinf1,”, “primers: Mm00515324_m1, Mm00492097_m1,” for “primers Mm00442530_m1, Mm00441270_m1,”

With `CNc1nc2ccc(-c3c(C)ccc(C(=O)c4c(-c5ccccc5)n(C)n(-c5ccccc5)c4=O)c3N)cc2s1` [Compound 39, 4-(2-Amino-4-methyl-3-(2-(methylamino)benzo[d]thiazol-6-yl)benzoyl)-1-methyl-2,5-diphenyl-1H-pyrazol-3(2H)-one] the “induction of retinal Slc7a11 gene expression” value ([1]; normoxic and OIR neonatal mice (FIG. 12A)) was “dose-dependent induction”, the “induction of retinal Serpinf1 gene expression” value ([1]; normoxic and OIR neonatal mice (FIG. 12B)) was “dose-dependent induction” and the “levels of ATF4” value [2] was “increases”. The “levels of DDIT3 (CHOP)” value [2] was “increases”, the “levels of phospho-eIF2a (p-eIF2a)” value [2] was “increases” and the “concentration of peak activation of ATF4 expression” value [3] was roughly 250 nM. For the same compound, the neovascularization [4] was “significant reversal; also recorded: significantly suppressed”, the “induction of ATF4 gene expression in retina” value ([5]; normoxic and OIR neonates (FIG. 11A)) was “dose-dependent induction” and the “induction of DDIT3 gene expression in retina” value ([5]; normoxic and OIR neonates (FIG. 11B)) was “dose-dependent induction”.
